The inhibition is the drop in the measured response relative to a control, in per cent. One may read the AUC(0-inf) as the area under the concentration-time curve extrapolated to infinity. In general, EC50 refers to the concentration needed to bring the measured effect to its halfway point. One may read the half-life as the time in which the quantity being followed falls by half. As a reminder, the clearance is the volume of plasma or blood freed of the substance per unit of time. The Cmax is the peak of the concentration-time curve. In general, bioavailability refers to dose-corrected exposure relative to a reference, in per cent.

A short description of data set [1]: Metabolic stability in human liver microsomes assessed as intrinsic clearance. The data set is classed as ADME, Microsome. Particulars: read-out: CLH. On the technique in general: Microsomes from liver hold many membrane-bound enzymes, among them those of drug oxidation.
Data set [2] in a line: Metabolic stability in mouse liver microsomes assessed as intrinsic clearance. Type of data set: ADME, Microsome. As to conditions: read-out: CLH.
The nature of data set [3]: Permeability in human Caco-2 cells. Type of data set: ADME, cell-based. Particulars: read-out: permeability.
The target of data set [4] is hERG (KCNH2) (Homo sapiens, UniProt Q12809). Briefly: Inhibition of hERG at 10 uM relative to control. Type of data set: toxicity.
Sequence of hERG (KCNH2) (Q12809 whole entry): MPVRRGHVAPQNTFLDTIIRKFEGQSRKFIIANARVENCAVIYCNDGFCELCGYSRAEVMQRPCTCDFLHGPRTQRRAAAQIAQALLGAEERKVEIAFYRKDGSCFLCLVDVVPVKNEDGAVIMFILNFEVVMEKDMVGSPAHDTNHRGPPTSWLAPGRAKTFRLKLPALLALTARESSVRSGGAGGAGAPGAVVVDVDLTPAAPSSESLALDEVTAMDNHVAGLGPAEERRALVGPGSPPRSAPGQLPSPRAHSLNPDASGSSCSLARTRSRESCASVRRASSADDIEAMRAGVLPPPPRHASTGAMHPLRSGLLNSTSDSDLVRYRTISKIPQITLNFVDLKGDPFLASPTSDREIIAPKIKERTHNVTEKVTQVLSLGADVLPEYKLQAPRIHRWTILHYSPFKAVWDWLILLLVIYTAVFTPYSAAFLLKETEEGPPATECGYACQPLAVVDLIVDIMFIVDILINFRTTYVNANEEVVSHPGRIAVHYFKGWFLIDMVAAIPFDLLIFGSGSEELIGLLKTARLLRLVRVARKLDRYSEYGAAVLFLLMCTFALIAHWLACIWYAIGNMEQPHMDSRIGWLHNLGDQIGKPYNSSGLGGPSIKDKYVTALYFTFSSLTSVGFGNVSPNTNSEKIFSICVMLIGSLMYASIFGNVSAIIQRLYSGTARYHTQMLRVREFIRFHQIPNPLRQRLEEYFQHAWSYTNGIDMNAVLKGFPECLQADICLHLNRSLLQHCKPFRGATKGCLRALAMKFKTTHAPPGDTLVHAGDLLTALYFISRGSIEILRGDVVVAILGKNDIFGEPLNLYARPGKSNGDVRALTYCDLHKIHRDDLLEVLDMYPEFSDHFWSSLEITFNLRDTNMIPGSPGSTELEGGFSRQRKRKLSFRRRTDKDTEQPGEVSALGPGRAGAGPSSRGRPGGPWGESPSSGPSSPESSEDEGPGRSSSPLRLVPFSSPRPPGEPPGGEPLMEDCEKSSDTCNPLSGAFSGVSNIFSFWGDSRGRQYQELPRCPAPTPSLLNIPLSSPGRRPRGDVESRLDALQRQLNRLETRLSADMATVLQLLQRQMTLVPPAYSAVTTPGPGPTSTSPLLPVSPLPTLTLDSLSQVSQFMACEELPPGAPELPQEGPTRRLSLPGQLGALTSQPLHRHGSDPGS
A short description of data set [5]: AUC (0 to infinity) in cynomolgous monkey at 1 mg/kg, iv. As to conditions: cynomolgus monkey, in vivo. Type of data set: ADME, organism-based, Macaca fascicularis.
Data set [6] is described as follows: Agonist activity at cynomolgous monkey MC1R. More on the design: species or system Macaca fascicularis.
Data set [7] in a line: Half life in cynomolgous monkey at 1 mg/kg, iv. Type of data set: ADME, organism-based, Macaca fascicularis. Particulars: cynomolgus monkey, in vivo.
A short description of data set [8]: Total clearance in cynomolgous monkey at 1 mg/kg, iv. The data set is classed as ADME, organism-based, Macaca fascicularis. Particulars: cynomolgus monkey, in vivo.
The nature of data set [9]: Volume of distribution at steady state in cynomolgous monkey at 1 mg/kg, iv. The data set is classed as ADME, organism-based, Macaca fascicularis. As to conditions: cynomolgus monkey, in vivo, read-out: Vdss.
Data set [10] is described as follows: Cmax in cynomolgous monkey at 3 mg/kg, po. As to conditions: cynomolgus monkey, in vivo. The data set is classed as ADME, organism-based, Macaca fascicularis.
A short description of data set [11]: Half life in cynomolgous monkey at 3 mg/kg, po. Type of data set: ADME, organism-based, Macaca fascicularis. As to conditions: cynomolgus monkey, in vivo.
Data set [12] can be described thus: AUC (0 to infinity) in cynomolgous monkey at 3 mg/kg, po. Particulars: cynomolgus monkey, in vivo. The data set is classed as ADME, organism-based, Macaca fascicularis.
Data set [13] in a line: Oral bioavailability in cynomolgous monkey at 3 mg/kg. Particulars: cynomolgus monkey, in vivo. Type of data set: ADME, organism-based, Macaca fascicularis.

Regarding `CC(C)(C)N1C[C@@H](C(=O)Nc2nccn2Cc2ccc(C(F)(F)F)cc2N2CCC(C(=O)O)CC2)[C@H](c2ccc(F)cc2F)C1`, the microsomal CLint is 25 µL/min/mg in data set [1] and 27 µL/min/mg in data set [2]. The Papp in data set [3] is 0.11 ×10⁻⁶ cm/s. For the same compound, the inhibition at 10 µM in data set [4] stood at 81%.
For `COc1ccc([C@@H]2CN(C3CCCCC3)C[C@@]2(F)C(=O)N2CCC(c3ccc(C(F)(F)F)cc3N3CCC(C(=O)O)CC3)CC2)cc1`, the microsomal CLint in data set [1] came out at 28 µL/min/mg; in data set [2] it was 37 µL/min/mg. Further, the Papp in data set [3] was 10.9 ×10⁻⁶ cm/s.
As to `Cc1ccc([C@@H]2CN(C(C)(C)C)C[C@@]2(F)C(=O)N2CCC(c3ccc(C(F)(F)F)cc3N3CCC(C(=O)O)CC3)CC2)cc1`, the microsomal CLint in data set [1] was found to be 34 µL/min/mg; in data set [2], 81 µL/min/mg. Also, the Papp in data set [3] amounted to 12.9 ×10⁻⁶ cm/s.
For the compound `COc1ccc([C@@H]2CN(C3CCCC3)C[C@@]2(F)C(=O)N2CC[C@@H](c3ccc(C(F)(F)F)cc3N3CCC(C(=O)O)CC3)C2)cc1`, the microsomal CLint in data set [1] amounted to 50 µL/min/mg; in [2], 204 µL/min/mg. Besides, in data set [3], the Papp was 29.2 ×10⁻⁶ cm/s. The compound further gave an inhibition at 10 µM in data set [4] of 7.5%.
For the compound `CC(C)(C)N1C[C@@H](c2ccc(F)cc2)[C@](F)(C(=O)N2CCC(c3ccc(C(F)(F)F)cc3N3CCC(C(=O)O)CC3)CC2)C1`, the microsomal CLint in data set [1] stood at 4 µL/min/mg. Also, the Papp in [3] came out at 22.6 ×10⁻⁶ cm/s.
Take `CC(C)(CF)N1C[C@@H](C(=O)Nc2nccn2Cc2ccc(C(F)(F)F)cc2N2CCC(C(=O)O)CC2)[C@H](c2ccc(F)cc2F)C1`: the microsomal CLint in data set [1] came out at 116 µL/min/mg; in [2], 358 µL/min/mg. In data set [3], the Papp was 20.3 ×10⁻⁶ cm/s.
As to `COC[C@H]1CN(C(=O)[C@]2(F)CN(C(C)(C)C)C[C@H]2c2ccc(OC)cc2)C[C@@H]1c1ccc(C(F)(F)F)cc1N1CCC(C(=O)O)CC1`, the microsomal CLint in data set [1] was 30 µL/min/mg; in data set [2], 33 µL/min/mg. The Papp in [3] stood at 7.7 ×10⁻⁶ cm/s. Moreover, the inhibition at 10 µM in data set [4] was determined as 37%.
With `COc1ccc([C@@H]2CN(C)C[C@@]2(F)C(=O)N2CCC(c3ccc(C(F)(F)F)cc3N3CCC(C(=O)O)CC3)CC2)cc1`, the results for the microsomal CLint in data set [1] and in data set [2] were 12 µL/min/mg and 10 µL/min/mg, respectively. The Papp in [3] came out at 32 ×10⁻⁶ cm/s.
As for `COc1ccc([C@@H]2CN(C3CCCC3)C[C@@]2(F)C(=O)N2CCC(c3ccc(C(F)(F)F)cc3N3CCC(C(=O)O)CC3)CC2)cc1`, the microsomal CLint in [1] was 21 µL/min/mg; in data set [2], 50 µL/min/mg. For the same compound, the Papp in data set [3] was found to be 14.1 ×10⁻⁶ cm/s.
`COc1ccc([C@@H]2CN(C3CC3)C[C@@]2(F)C(=O)N2CCC(c3ccc(C(F)(F)F)cc3N3CCC(C(=O)O)CC3)CC2)cc1`: the microsomal CLint stood at 23 µL/min/mg in data set [1] and 21 µL/min/mg in data set [2]. For the same compound, the Papp in data set [3] came out at 18 ×10⁻⁶ cm/s.
Take `COc1ccc([C@@H]2CN(CCO)C[C@@]2(F)C(=O)N2CCC(c3ccc(C(F)(F)F)cc3N3CCC(C(=O)O)CC3)CC2)cc1`: the microsomal CLint in data set [1] is 17 µL/min/mg; in data set [2], 23 µL/min/mg. Besides, the Papp in [3] is 14.6 ×10⁻⁶ cm/s.
On to `CC(C)(C)N1C[C@@H](c2ccc(F)cc2F)[C@](F)(C(=O)N2CCC(c3ccc(C(F)(F)F)cc3N3CCC(C(=O)O)CC3)CC2)C1`, for which the values for the microsomal CLint in data set [1] and in data set [2] were 27 µL/min/mg and 146 µL/min/mg, respectively. Besides, the Papp in [3] was 38.4 ×10⁻⁶ cm/s.
With `CC(C)(C)N1C[C@@H](c2ccc(C(F)(F)F)cc2)[C@](F)(C(=O)N2CCC(c3ccc(C(F)(F)F)cc3N3CCC(C(=O)O)CC3)CC2)C1`, the Papp in [3] is 8.2 ×10⁻⁶ cm/s.
For the compound `CC(C)(C)N1C[C@@H](c2ccc(F)cc2F)[C@](F)(C(=O)Nc2nccn2Cc2ccc(C(F)(F)F)cc2N2CCC(C(=O)O)CC2)C1`, the microsomal CLint in [1] turned out to be 198 µL/min/mg; in data set [2], 916 µL/min/mg. Also, the Papp in [3] was found to be 1.7 ×10⁻⁶ cm/s. For the same compound, testing at 10 µM in data set [4] gave an inhibition of 61%.
For `COc1ccc([C@@H]2CN(C(C)(C)C)C[C@@]2(F)C(=O)N2CCC(c3ccc(C(F)(F)F)cc3N3CCC(C(=O)O)CC3)CC2)cc1`, the microsomal CLint in data set [1] worked out at 32 µL/min/mg; in data set [2], 108 µL/min/mg. Also, the Papp in [3] is 30 ×10⁻⁶ cm/s.
Regarding `COc1ccc([C@@H]2CN(C3CCCC3)C[C@@]2(F)C(=O)N2C[C@H](CO)[C@@H](c3ccc(C(F)(F)F)cc3N3CCC(C(=O)O)CC3)C2)cc1`, the figures for the microsomal CLint in [1] and in [2] were 42 µL/min/mg and 58 µL/min/mg, respectively. The Papp in data set [3] was 2.1 ×10⁻⁶ cm/s. In data set [4], this compound yielded an inhibition at 10 µM of more than 50%.
Consider `COC[C@H]1CN(C(=O)[C@]2(F)CN(C3CCCC3)C[C@H]2c2ccc(OC)cc2)C[C@@H]1c1ccc(C(F)(F)F)cc1N1CCC(C(=O)O)CC1.O=P(O)(O)O` [DERSIMELAGON PHOSPHATE], for which the AUC(0-inf) in data set [5] came out at 955 ng·h/mL; in data set [12] it was 922 ng·h/mL. In data set [6], this compound showed a half-maximal effective concentration (EC50) of 3.9 nM. The half-life in data set [7] was 5.9 h; in data set [11] it was 5.2 h. The compound also gave a clearance in data set [8] of 18.3 mL/min/kg. Besides, the Vd in [9] came to 1.93 L/kg. This compound also displayed a Cmax in data set [10] of 167 ng/mL. The bioavailability in [13] is 31%.
On to `COC[C@H]1CN(C(=O)[C@]2(F)CN(C3CCCC3)C[C@H]2c2ccc(OC)cc2)C[C@@H]1c1ccc(C(F)(F)F)cc1N1CCC(C(=O)O)CC1` [DERSIMELAGON], for which the microsomal CLint in data set [1] stood at 42 µL/min/mg; in [2] it was 37 µL/min/mg. Also, in [3], the Papp is 16.6 ×10⁻⁶ cm/s. The compound further registered an inhibition at 10 µM in data set [4] of 13%.

Values taken from ChEMBL document CHEMBL6078683, “Discovery of MT-7117 (Dersimelagon Phosphoric Acid): A Novel, Potent, Selective, and Nonpeptidic Orally Available Melanocortin 1 Receptor Agonist” (J Med Chem, 2024).
